According to patent US20260285850A1, “SUBSTITUTED OXAZOLIDINONES AND IMIDAZOLINONES AS HERBICIDES” (FMC CORPORATION, priority 2023, published 2026):

Experiments:
Format in all cases: in vivo
rice (Oryza sativa) = test: Test B flooded paddy test, visual plant response rating 0-100; conditions: 250 g ai/ha, Flood, applied to paddy water, evaluated after 13 days
In short: (§1)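 Visual scores versus untreated controls were recorded 13 days after treatment of greenhouse-held plants. At the 2-leaf stage, pots were flooded 3 cm above the soil surface and compounds added straight to the water.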

[1] = system: sedge, umbrella (small-flower umbrella sedge, Cyperus difformis); test: as above; conditions: 250 g ai/ha, Flood, applied to paddy water, evaluated after 13 days
In short: as §1

[2] = system: barnyardgrass (Echinochloa crusgalli); test: as above; conditions: 250 g ai/ha, Flood, applied to paddy water, evaluated after 13 days
In short: as §1

[3] = system: ducksalad (Heteranthera limosa); test: as above; conditions: 250 g ai/ha, Flood, applied to paddy water, evaluated after 13 days
In short: as §1

[4] = system: ragweed (common ragweed, Ambrosia artemisiifolia); test: Test A preemergence soil spray, visual injury rating 0-100; conditions: 10 days
In short: (§2)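 Plants in a loam and sand soil blend were treated with each test chemical, in a non-phytotoxic solvent system including surfactant, either sprayed on seeded soil before emergence or applied after emergence at the one- to two-leaf stage. Ten days later in the greenhouse, plants were compared with untreated controls and visually rated from 0 (no effect) to 100 (complete control).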

[5] = system: blackgrass (Alopecurus myosuroides); test: as above; conditions: 10 days
In short: as §2

soybean (Glycine max) [6] = test: as above; conditions: 62 g ai/ha, 10 days, 0 = no effect, 100 = complete control
In short: as §2

[7] = system: wheat (Triticum aestivum); test: as above; conditions: 10 days
In short: as §2

[8] = system: oat, wild (wild oat, Avena fatua); test: as above; conditions: 10 days
In short: as §2

kochia (Bassia scoparia) [9] = test: as above; conditions: 10 days
In short: as §2

[10] = system: green foxtail (Setaria viridis); test: as above; conditions: 10 days
In short: as §2

corn (Zea mays) [11] = test: as above; conditions: 10 days
In short: as §2

[12] = system: barnyardgrass (Echinochloa crus-galli); test: as above; conditions: 10 days
In short: as §2

[13] = system: ryegrass, Italian (italian ryegrass, Lolium multiflorum); test: as above; conditions: 10 days
In short: as §2

[14] = system: ragweed (common ragweed, Ambrosia artemisiifolia); test: Test A postemergence application, visual injury rating 0-100
In short: as §2

[15] = system: blackgrass (Alopecurus myosuroides); test: as above
In short: as §2

soybean (Glycine max) [16] = test: as above
In short: as §2

[17] = system: wheat (Triticum aestivum); test: as above
In short: as §2

[18] = system: oat, wild (wild oat, Avena fatua); test: as above
In short: as §2

[19] = system: palmer (palmer amaranth, palmer pigweed, Amaranthus palmeri); test: as above
In short: as §2

kochia (Bassia scoparia) [20] = test: as above
In short: as §2

[21] = system: green foxtail (Setaria viridis); test: as above
In short: as §2

corn (Zea mays) [22] = test: as above
In short: as §2

[23] = system: horseweed (Erigeron canadensis); test: as above
In short: as §2

[24] = system: barnyardgrass (Echinochloa crus-galli); test: as above
In short: as §2

[25] = system: ryegrass, Italian (italian ryegrass, Lolium multiflorum); test: as above
In short: as §2

[26] = system: galium (catchweed bedstraw, Galium aparine); test: as above
In short: as §2

[27] = 62 g ai/ha, 0 = no effect, 100 = complete control
[28] = 62 g ai/ha, postemergence, 10 days, 0 = no effect, 100 = complete control
[29] = Postemergence, 16 g ai/ha, greenhouse 10 days, 0 no effect, 100 complete control

CC1(C(=O)NC2CC=C(C(=O)OCC(F)(F)F)C2)CN(c2cc(F)cc(Cl)c2)C(=O)O1 (stereo not shown) [Compound 142]
0: Plant response rating, Rice (0 to 100 scale, 0 is no effect and 100 is complete control) (rice (Oryza sativa)) | Plant response rating, Sedge, Umbrella (0 to 100 scale, 0 is no effect and 100 is complete control) [1] | Plant response rating, Barnyardgrass (0 to 100 scale, 0 is no effect and 100 is complete control) [2] | Plant response rating, Ducksalad (0 to 100 scale, 0 is no effect and 100 is complete control) [3] | Ragweed plant response rating ([4]; 16 g ai/ha, 0 to 100 scale) | Ragweed plant response rating (0-100) [4, 27] | Blackgrass plant response rating ([5]; 16 g ai/ha, 0 to 100 scale) | Blackgrass plant response rating (0-100) [5, 27] | Soybean plant response rating (0-100) (soybean (Glycine max) [6]) | Wheat plant response rating ([7]; 16 g ai/ha, 0 to 100 scale) | Wheat plant response rating (0-100) [7, 27] | Oat, Wild plant response rating ([8]; 16 g ai/ha, 0 to 100 scale) | Oat, Wild plant response rating (0-100) [8, 27] | Kochia plant response rating (kochia (Bassia scoparia) [9]; 16 g ai/ha, 0 to 100 scale) | Kochia plant response rating (0-100) (kochia (Bassia scoparia) [9]; [27]) | Foxtail, Green plant response rating ([10]; 16 g ai/ha, 0 to 100 scale) | Foxtail, Green plant response rating (0-100) [10, 27] | Corn plant response rating (corn (Zea mays) [11]; 16 g ai/ha, 0 to 100 scale) | Corn plant response rating (0-100) (corn (Zea mays) [11]; [27]) | Barnyardgrass plant response rating ([12]; 16 g ai/ha, 0 to 100 scale) | Barnyardgrass plant response rating (0-100) [12, 27] | Ryegrass, Italian plant response rating ([13]; 16 g ai/ha, 0 to 100 scale) | Ryegrass, Italian plant response rating (0-100) [13, 27] | Ragweed plant response rating (0-100) [14, 28] | Ragweed plant response rating (0 to 100 scale) [14, 29] | Blackgrass plant response rating (0-100) [15, 28] | Blackgrass plant response rating (0 to 100 scale) [15, 29] | Soybean plant response rating (0-100) (soybean (Glycine max) [16]; [28]) | Soybean plant response rating (0 to 100 scale) (soybean (Glycine max) [16]; [29]) | Wheat plant response rating (0-100) [17, 28] | Wheat plant response rating (0 to 100 scale) [17, 29] | Oat, Wild plant response rating (0-100) [18, 28] | Oat, Wild plant response rating (0 to 100 scale) [18, 29] | Pigweed, Palmer plant response rating (0-100) [19, 28] | Pigweed, Palmer plant response rating (0 to 100 scale) [19, 29] | Kochia plant response rating (0-100) (kochia (Bassia scoparia) [20]; [28]) | Kochia plant response rating (0 to 100 scale) (kochia (Bassia scoparia) [20]; [29]) | Foxtail, Green plant response rating (0-100) [21, 28] | Foxtail, Green plant response rating (0 to 100 scale) [21, 29] | Corn plant response rating (0-100) (corn (Zea mays) [22]; [28]) | Corn plant response rating (0 to 100 scale) (corn (Zea mays) [22]; [29]) | Horseweed plant response rating (0-100) [23, 28] | Horseweed plant response rating (0 to 100 scale) [23, 29] | Barnyardgrass plant response rating (0-100) [24, 28] | Barnyardgrass plant response rating (0 to 100 scale) [24, 29] | Ryegrass, Italian plant response rating (0-100) [25, 28] | Ryegrass, Italian plant response rating (0 to 100 scale) [25, 29] | Galium plant response rating (0-100) [26, 28] | Galium plant response rating (0 to 100 scale) [26, 29]
